Values quoted from earlier work in patent US20040116402A1, “Superoxide dismutase mimics for the treatment of ocular disorders and diseases” (priority 2002, published 2004).

What was measured:
[1] = tested on: autoimmune diabetes by a diabetogenic T-cell clone; conditions: in a cloned cell (diabetogenic T-cell clone adoptive transfer)

In the case of `CC1(C)CC(O)CC(C)(C)N1[O]` [4-hydroxy-2,2,6,6-tetramethylpiperidine-1-oxyl], the light-induced retinal damage (albino rats) is listed as “inhibited light-induced retinal damage”.

For `[Cl-].[Cl-].[Mn+2].c1cc2nc(c1)CN[C@@H]1CCCC[C@H]1NCCN[C@@H]1CCCC[C@H]1NC2` [M40403], the “vascular and neural dysfunction” value (diabetic rats) is listed as “prevented vascular and neural dysfunction”.

In the case of `CCN1C=CC=C/C1=C1/C2=NC(=C(c3cccc[n+]3CC)C3=NC(=C(c4cccc[n+]4CC)c4ccc([n-]4)C(c4cccc[n+]4CC)=C4C=CC1=N4)C=C3)C=C2.[Cl-].[Cl-].[Cl-].[Cl-].[Cl-].[Mn+3]` [AEOL10113], the onset of diabetes [1] is given as “delay the onset of diabetes”.
